Reference: patent US9969694B2, “N-(arylalkyl)-N′-pyrazolyl-urea, thiourea, guanidine and cyanoguanidine compounds as TrkA kinase inhibitors” (Array BioPharma Inc., priority 2012, dated 2018)

Legend:
Test in all cases: Off-Target Kinase Profiling
Type in all cases: biochemical
Conditions in all cases: 10 μM; ATP near Km
c-RAF = system: c-RAF
Experimental: (§1) Representative compounds of the invention (Examples 33 and 10) were tested for off-target kinase activity at a concentration of 10 μM by Millipore, Inc. in their KinaseProfiler™ service against all the kinases available in their full kinase panel. Compounds were run in duplicate at a concentration of ATP near the Km for each individual kinase according to Millipore's specifications. The results are shown in Table B. Data are reported as percent of control (POC) and are the average of the two replicates.

CLK3 = biological target: T1, CLK3 (Homo sapiens, UniProt P49761)
T1 construct: purchased Millipore, Inc. (KinaseProfiler service)
Experimental: as §1

CDK2/cyclinA = biological target: T2, CDK2/cyclinA (Homo sapiens, UniProt P24941)
T2 construct: purchased Millipore (KinaseProfiler service)
Experimental: as §1

GRK6 = biological target: T3, GRK6 (Homo sapiens, UniProt P43250)
T3 construct: purchased Millipore, Inc. (KinaseProfiler service)
Experimental: as §1

MuSK = biological target: T4, MuSK (Homo sapiens, UniProt O15146)
T4 construct: purchased Millipore, Inc. (KinaseProfiler service)
T4 sequence (O15146 24-869): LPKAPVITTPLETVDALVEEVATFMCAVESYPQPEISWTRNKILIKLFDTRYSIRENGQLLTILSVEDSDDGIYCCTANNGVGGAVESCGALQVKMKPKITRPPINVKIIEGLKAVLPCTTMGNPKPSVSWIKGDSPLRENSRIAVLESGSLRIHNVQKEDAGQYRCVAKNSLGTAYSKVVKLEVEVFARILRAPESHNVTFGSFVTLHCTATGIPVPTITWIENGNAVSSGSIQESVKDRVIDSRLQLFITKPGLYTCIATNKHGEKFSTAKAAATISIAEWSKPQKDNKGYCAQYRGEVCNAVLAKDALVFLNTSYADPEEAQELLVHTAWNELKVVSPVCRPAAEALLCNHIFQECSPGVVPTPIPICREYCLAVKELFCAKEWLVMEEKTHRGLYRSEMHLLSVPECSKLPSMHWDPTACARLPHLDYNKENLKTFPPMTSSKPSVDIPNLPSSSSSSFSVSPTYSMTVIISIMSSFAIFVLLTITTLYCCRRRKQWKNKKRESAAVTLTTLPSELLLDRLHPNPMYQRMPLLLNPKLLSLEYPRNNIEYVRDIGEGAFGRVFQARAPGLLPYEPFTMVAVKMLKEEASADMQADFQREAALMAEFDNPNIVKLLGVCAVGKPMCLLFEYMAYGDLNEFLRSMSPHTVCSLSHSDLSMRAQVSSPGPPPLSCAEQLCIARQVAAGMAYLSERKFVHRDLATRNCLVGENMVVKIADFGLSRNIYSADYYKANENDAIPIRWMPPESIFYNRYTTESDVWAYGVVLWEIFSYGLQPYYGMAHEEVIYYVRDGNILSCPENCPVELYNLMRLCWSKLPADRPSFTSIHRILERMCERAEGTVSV
Experimental: as §1

FGFR4 = biological target: T5, FGFR4 (Homo sapiens, UniProt P22455)
T5 construct: purchased Millipore, Inc. (KinaseProfiler service)
Experimental: as §1

MSSK1 = biological target: T6, MSSK1 (Homo sapiens, UniProt Q9UPE1)
T6 construct: purchased Millipore, Inc. (KinaseProfiler service)
Experimental: as §1

p38alpha = biological target: T7, p38alpha (Homo sapiens, UniProt Q16539)
T7 construct: purchased Millipore, Inc. (KinaseProfiler service)
Experimental: as §1

TEC Activated = biological target: T8, TEC Activated (Homo sapiens, UniProt P42680)
T8 construct: purchased Millipore, Inc. (KinaseProfiler service)
Experimental: as §1

JNK1alpha1 = biological target: T9, JNK1alpha1 (Homo sapiens, UniProt P45983)
T9 construct: purchased Millipore, Inc. (KinaseProfiler service)
Experimental: as §1

CAMK2d = biological target: T10, CAMK2d (Homo sapiens, UniProt Q13557)
T10 construct: purchased Millipore (KinaseProfiler service)
Experimental: as §1

BrSK2 = biological target: T11, BrSK2 (Homo sapiens, UniProt Q8IWQ3)
T11 construct: purchased Millipore (KinaseProfiler service)
Experimental: as §1

DAPK2 = biological target: T12, DAPK2 (Homo sapiens, UniProt Q9UIK4)
T12 construct: purchased Millipore, Inc. (KinaseProfiler service)
T12 sequence (Q9UIK4 whole entry): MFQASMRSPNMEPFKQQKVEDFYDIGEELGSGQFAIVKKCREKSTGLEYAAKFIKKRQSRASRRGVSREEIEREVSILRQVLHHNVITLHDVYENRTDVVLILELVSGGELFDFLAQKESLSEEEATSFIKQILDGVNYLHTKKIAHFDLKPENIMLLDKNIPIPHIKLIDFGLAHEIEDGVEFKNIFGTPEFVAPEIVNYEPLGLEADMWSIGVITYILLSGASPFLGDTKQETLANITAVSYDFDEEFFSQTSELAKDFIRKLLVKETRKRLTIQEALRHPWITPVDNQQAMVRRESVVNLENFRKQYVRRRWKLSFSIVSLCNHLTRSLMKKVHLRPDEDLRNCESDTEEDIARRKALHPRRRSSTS
Experimental: as §1

WNK2 = biological target: T13, WNK2 (Homo sapiens, UniProt Q9Y3S1)
T13 construct: purchased Millipore, Inc. (KinaseProfiler service)
Experimental: as §1

JNK2alpha2 = biological target: T14, JNK2alpha2 (Homo sapiens, UniProt P45984)
T14 construct: purchased Millipore, Inc. (KinaseProfiler service)
Experimental: as §1

SRPK2 = biological target: T15, SRPK2 (Homo sapiens, UniProt P78362)
T15 construct: purchased Millipore, Inc. (KinaseProfiler service)
Experimental: as §1

HIPK2 = biological target: T16, HIPK2 (Homo sapiens, UniProt Q9H2X6)
T16 construct: purchased Millipore, Inc. (KinaseProfiler service)
Experimental: as §1

PKD1 = biological target: T17, PKD1 (Homo sapiens, UniProt Q15139)
T17 construct: purchased Millipore, Inc. (KinaseProfiler service)
Experimental: as §1

PAK5 = biological target: T18, PAK5 (Homo sapiens, UniProt Q9P286)
T18 construct: purchased Millipore, Inc. (KinaseProfiler service)
Experimental: as §1

CK2alpha2 = biological target: T19, CK2alpha2 (Homo sapiens, UniProt P19784)
T19 construct: purchased Millipore, Inc. (KinaseProfiler service)
T19 sequence (P19784 whole entry): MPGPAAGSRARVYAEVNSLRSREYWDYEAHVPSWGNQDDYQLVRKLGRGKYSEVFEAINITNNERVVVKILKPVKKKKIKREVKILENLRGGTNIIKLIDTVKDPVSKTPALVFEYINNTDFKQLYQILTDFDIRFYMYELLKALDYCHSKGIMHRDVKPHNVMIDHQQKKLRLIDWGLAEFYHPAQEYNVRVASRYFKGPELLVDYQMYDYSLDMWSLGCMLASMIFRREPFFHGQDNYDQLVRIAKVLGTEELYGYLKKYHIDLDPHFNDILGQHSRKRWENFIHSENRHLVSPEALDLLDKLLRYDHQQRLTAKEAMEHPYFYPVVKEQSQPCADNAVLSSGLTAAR
Experimental: as §1

AKT1 = biological target: T20, AKT1 (Homo sapiens, UniProt P31749)
T20 construct: purchased Millipore (KinaseProfiler service)
Experimental: as §1

ITK = biological target: T21, ITK (Homo sapiens, UniProt Q08881)
T21 construct: purchased Millipore, Inc. (KinaseProfiler service)
Experimental: as §1

Ron = biological target: T22, Ron (Homo sapiens, UniProt Q04912)
T22 construct: purchased Millipore, Inc. (KinaseProfiler service)
Experimental: as §1

Mer = biological target: T23, Mer (Homo sapiens, UniProt Q12866)
T23 construct: purchased Millipore, Inc. (KinaseProfiler service)
Experimental: as §1

ROCK-II = biological target: T24, ROCK-II (Homo sapiens, UniProt O75116)
T24 construct: purchased Millipore, Inc. (KinaseProfiler service)
Experimental: as §1

PKCbetaII = biological target: T25, PKCbetaII (Homo sapiens, UniProt P05771)
T25 construct: purchased Millipore, Inc. (KinaseProfiler service)
Experimental: as §1

Flt1 = biological target: T26, Flt1 (Homo sapiens, UniProt P17948)
T26 construct: purchased Millipore, Inc. (KinaseProfiler service)
T26 sequence (P17948 27-1338): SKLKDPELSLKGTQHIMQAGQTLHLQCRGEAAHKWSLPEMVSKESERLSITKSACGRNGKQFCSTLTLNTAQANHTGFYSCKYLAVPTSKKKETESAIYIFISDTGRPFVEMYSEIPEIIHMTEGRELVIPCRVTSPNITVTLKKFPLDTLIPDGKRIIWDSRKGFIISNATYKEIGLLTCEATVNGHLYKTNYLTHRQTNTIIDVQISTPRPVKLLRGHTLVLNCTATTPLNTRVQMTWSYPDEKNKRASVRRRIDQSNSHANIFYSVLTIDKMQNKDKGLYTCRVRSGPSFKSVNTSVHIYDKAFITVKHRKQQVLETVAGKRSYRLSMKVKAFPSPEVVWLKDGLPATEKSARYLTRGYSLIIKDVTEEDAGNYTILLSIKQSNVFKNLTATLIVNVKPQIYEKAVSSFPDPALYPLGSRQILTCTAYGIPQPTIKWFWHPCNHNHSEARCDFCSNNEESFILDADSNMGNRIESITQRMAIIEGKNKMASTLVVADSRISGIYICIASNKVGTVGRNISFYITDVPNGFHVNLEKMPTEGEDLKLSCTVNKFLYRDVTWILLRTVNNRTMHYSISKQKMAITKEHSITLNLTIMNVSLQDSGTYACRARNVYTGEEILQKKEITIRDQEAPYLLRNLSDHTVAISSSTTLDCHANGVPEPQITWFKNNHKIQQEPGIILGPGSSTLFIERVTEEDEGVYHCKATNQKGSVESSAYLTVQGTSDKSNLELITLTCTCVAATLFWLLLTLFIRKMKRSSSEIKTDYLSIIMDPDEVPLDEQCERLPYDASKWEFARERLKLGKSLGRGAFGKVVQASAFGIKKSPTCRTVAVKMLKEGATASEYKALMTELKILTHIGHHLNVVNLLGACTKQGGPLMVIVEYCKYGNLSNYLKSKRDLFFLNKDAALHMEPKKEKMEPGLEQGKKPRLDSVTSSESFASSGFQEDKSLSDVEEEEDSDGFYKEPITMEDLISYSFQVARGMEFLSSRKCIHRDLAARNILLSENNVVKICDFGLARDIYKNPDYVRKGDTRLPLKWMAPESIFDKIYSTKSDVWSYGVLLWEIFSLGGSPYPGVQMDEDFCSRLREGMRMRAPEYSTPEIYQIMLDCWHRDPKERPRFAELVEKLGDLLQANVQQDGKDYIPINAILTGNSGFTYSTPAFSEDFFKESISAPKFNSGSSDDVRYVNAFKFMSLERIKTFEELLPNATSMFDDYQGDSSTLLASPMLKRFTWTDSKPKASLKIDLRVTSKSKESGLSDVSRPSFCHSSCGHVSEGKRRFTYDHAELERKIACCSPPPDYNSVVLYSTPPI
Experimental: as §1

IR = biological target: T27, IR (Homo sapiens, UniProt P06213)
T27 construct: purchased Millipore, Inc. (KinaseProfiler service)
Experimental: as §1

ALK = biological target: T28, ALK (Homo sapiens, UniProt Q9UM73)
T28 construct: purchased Millipore (KinaseProfiler service)
Experimental: as §1

JAK2 = biological target: T29, JAK2 (Homo sapiens, UniProt O60674)
T29 construct: purchased Millipore, Inc. (KinaseProfiler service)
Experimental: as §1

NEK2 = biological target: T30, NEK2 (Homo sapiens, UniProt P51955)
T30 construct: purchased Millipore, Inc. (KinaseProfiler service)
T30 sequence (P51955 whole entry): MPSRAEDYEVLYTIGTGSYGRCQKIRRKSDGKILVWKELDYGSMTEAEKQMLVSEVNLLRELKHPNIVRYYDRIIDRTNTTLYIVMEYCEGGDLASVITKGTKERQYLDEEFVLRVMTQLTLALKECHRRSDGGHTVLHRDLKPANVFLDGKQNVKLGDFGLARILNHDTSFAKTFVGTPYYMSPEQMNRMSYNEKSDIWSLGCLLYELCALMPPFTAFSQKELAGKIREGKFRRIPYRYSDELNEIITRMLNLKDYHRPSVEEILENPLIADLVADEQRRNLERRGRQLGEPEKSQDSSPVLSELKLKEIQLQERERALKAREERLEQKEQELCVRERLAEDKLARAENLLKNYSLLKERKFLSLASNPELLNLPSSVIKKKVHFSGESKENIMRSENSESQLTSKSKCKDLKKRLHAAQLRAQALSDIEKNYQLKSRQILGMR
Experimental: as §1

CDK6/cyclinD3 = biological target: T31, CDK6/cyclinD3 (Homo sapiens, UniProt Q00534)
T31 construct: purchased Millipore, Inc. (KinaseProfiler service)
Experimental: as §1

MLK1 = biological target: T32, MLK1 (Homo sapiens, UniProt P80192)
T32 construct: purchased Millipore, Inc. (KinaseProfiler service)
T32 sequence (P80192 whole entry): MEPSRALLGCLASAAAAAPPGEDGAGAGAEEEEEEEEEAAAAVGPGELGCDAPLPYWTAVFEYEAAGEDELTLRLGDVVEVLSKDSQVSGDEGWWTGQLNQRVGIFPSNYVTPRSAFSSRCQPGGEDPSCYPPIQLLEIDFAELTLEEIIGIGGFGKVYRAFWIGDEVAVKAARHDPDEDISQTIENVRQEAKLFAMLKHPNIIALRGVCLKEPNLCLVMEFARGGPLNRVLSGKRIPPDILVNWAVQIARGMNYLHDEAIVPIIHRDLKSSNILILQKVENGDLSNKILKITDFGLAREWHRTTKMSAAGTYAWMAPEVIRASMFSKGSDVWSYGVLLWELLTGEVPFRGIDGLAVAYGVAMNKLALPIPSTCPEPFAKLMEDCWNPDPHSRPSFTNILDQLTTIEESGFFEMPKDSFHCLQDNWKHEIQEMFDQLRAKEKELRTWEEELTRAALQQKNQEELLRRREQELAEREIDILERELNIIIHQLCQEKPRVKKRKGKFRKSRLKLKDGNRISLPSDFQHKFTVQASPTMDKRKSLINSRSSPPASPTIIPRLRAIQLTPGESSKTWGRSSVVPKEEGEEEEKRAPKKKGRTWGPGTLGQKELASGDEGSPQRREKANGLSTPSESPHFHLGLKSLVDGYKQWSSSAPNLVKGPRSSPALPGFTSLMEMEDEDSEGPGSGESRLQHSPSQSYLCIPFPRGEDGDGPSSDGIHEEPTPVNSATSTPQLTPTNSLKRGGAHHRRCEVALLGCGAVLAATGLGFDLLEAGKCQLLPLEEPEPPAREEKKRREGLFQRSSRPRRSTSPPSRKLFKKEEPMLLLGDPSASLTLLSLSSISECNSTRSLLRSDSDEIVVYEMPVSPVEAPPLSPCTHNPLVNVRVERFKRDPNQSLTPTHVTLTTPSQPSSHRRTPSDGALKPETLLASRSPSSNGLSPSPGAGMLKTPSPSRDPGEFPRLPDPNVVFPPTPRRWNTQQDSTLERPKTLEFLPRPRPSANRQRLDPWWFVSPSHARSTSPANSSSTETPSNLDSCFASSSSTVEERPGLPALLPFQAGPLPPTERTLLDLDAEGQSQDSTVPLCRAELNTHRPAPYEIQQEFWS
Experimental: as §1

Abl-P = biological target: T33, Abl-P (Homo sapiens, UniProt P00519)
T33 construct: purchased Millipore (KinaseProfiler service)
Experimental: as §1

MRCKbeta = biological target: T34, MRCKbeta (Homo sapiens, UniProt Q9Y5S2)
T34 construct: purchased Millipore, Inc. (KinaseProfiler service)
Experimental: as §1

TSSK1 = biological target: T35, TSSK1 (Homo sapiens, UniProt Q9BXA7)
T35 construct: purchased Millipore, Inc. (KinaseProfiler service)
Experimental: as §1

IRAK4 = biological target: T36, IRAK4 (Homo sapiens, UniProt Q9NWZ3)
T36 construct: purchased Millipore, Inc. (KinaseProfiler service)
T36 sequence (Q9NWZ3 whole entry): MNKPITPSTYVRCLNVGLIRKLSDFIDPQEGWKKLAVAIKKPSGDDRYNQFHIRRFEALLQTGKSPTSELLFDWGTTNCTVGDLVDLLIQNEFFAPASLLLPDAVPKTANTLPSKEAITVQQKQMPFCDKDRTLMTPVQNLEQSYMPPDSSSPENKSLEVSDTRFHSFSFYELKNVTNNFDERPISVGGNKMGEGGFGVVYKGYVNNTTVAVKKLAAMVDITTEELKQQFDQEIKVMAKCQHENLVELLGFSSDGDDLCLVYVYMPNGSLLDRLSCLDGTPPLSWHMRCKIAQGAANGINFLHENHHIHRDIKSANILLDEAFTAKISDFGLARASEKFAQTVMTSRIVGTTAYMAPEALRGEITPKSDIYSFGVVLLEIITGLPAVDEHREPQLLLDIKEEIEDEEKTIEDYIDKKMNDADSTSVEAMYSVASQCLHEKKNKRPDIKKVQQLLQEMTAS
Experimental: as §1

CAMK2b = biological target: T37, CAMK2b (Homo sapiens, UniProt Q13554)
T37 construct: purchased Millipore (KinaseProfiler service)
Experimental: as §1

Plk3 = biological target: T38, Plk3 (Homo sapiens, UniProt Q9H4B4)
T38 construct: purchased Millipore, Inc. (KinaseProfiler service)
Experimental: as §1

SGK3 = biological target: T39, SGK3 (Homo sapiens, UniProt Q96BR1)
T39 construct: purchased Millipore, Inc. (KinaseProfiler service)
Experimental: as §1

PRKG1beta = biological target: T40, PRKG1beta (Homo sapiens, UniProt Q13976)
T40 construct: purchased Millipore, Inc. (KinaseProfiler service)
Experimental: as §1

COCc1ccc(C(F)(F)F)c(CNC(=O)Nc2c(C)c(-c3cnn(C)c3)nn2-c2ccccc2)c1 [Example 33, 1-(1′,4-dimethyl-1-phenyl-1H,1′H-[3,4′-bipyrazol]-5-yl)-3-(5-(methoxymethyl)-2-(trifluoromethyl)benzyl)urea]
Avg POC c-RAF (c-RAF): 94.5 POC
Avg POC CLK3 (CLK3): 102 POC
Avg POC CDK2/cyclinA (CDK2/cyclinA): 103.5 POC
Avg POC GRK6 (GRK6): 99 POC
Avg POC MuSK (MuSK): 94.5 POC
Avg POC FGFR4 (FGFR4): 201.5 POC
Avg POC MSSK1 (MSSK1): 138.5 POC
Avg POC p38alpha (p38alpha): 88.5 POC
Avg POC TEC Activated (TEC Activated): 138.5 POC
Avg POC JNK1alpha1 (JNK1alpha1): 103 POC
Avg POC CAMK2d (CAMK2d): 118 POC
Avg POC BrSK2 (BrSK2): 145.5 POC
Avg POC DAPK2 (DAPK2): 109.5 POC
Avg POC WNK2 (WNK2): 140.5 POC
Avg POC JNK2alpha2 (JNK2alpha2): 89.5 POC
Avg POC SRPK2 (SRPK2): 112 POC
Avg POC HIPK2 (HIPK2): 95 POC
Avg POC PKD1 (PKD1): 94 POC
Avg POC PAK5 (PAK5): 144.5 POC
Avg POC CK2alpha2 (CK2alpha2): 99.5 POC
Avg POC AKT1 (AKT1): 132 POC
Avg POC ITK (ITK): 124 POC
Avg POC Ron (Ron): 95.5 POC
Avg POC Mer (Mer): 96.5 POC
Avg POC ROCK-II (ROCK-II): 107.5 POC
Avg POC PKCbetaII (PKCbetaII): 96 POC
Avg POC Flt1 (Flt1): 91 POC
Avg POC IR (IR): 68 POC
Avg POC ALK (ALK): 116 POC
Avg POC JAK2 (JAK2): 130 POC
Avg POC NEK2 (NEK2): 96 POC
Avg POC CDK6/cyclinD3 (CDK6/cyclinD3): 108 POC
Avg POC MLK1 (MLK1): 105.5 POC
Avg POC Abl-P (Abl-P): 170.5 POC
Avg POC MRCKbeta (MRCKbeta): 116.5 POC
Avg POC TSSK1 (TSSK1): 80 POC
Avg POC IRAK4 (IRAK4): 109.5 POC
Avg POC CAMK2b (CAMK2b): 96 POC
Avg POC Plk3 (Plk3): 109.5 POC
Avg POC SGK3 (SGK3): 150 POC
Avg POC PRKG1beta (PRKG1beta): 121 POC
